Laboratory results taken from article PMC3275754, “Pregnenolone sulphate-independent inhibition of TRPM3 channels by progesterone” (Cell Calcium, 2012).

Legend:
Assay type in all cases: cell-based
[1] = target: T1, Transient Receptor Potential Melastatin 3 (TRPM3) (Homo sapiens, UniProt Q9HCF6); assay: Ca2+ measurement; […] inhibits PregS-evoked but not nifedipine-evoked TRPM3 activity; parameters: human TRPM3 expressed in HEK 293 cells
[2] = target: T1, Transient Receptor Potential Melastatin 3 (TRPM3); assay: Overlay binding assay with lysate of HEK […] cells expressing TRPM3-YFP; parameters: human TRPM3 tagged with YFP
[3] = target: T1, Transient Receptor Potential Melastatin 3 (TRPM3); assay: Ca2+ measurement and whole-cell patch-clamp inhibition; steroid overlay binding of TRPM3-YFP lysate; parameters: human TRPM3 expressed in HEK 293 cells; TRPM3-YFP for overlay

T1 sequence (Q9HCF6 whole entry): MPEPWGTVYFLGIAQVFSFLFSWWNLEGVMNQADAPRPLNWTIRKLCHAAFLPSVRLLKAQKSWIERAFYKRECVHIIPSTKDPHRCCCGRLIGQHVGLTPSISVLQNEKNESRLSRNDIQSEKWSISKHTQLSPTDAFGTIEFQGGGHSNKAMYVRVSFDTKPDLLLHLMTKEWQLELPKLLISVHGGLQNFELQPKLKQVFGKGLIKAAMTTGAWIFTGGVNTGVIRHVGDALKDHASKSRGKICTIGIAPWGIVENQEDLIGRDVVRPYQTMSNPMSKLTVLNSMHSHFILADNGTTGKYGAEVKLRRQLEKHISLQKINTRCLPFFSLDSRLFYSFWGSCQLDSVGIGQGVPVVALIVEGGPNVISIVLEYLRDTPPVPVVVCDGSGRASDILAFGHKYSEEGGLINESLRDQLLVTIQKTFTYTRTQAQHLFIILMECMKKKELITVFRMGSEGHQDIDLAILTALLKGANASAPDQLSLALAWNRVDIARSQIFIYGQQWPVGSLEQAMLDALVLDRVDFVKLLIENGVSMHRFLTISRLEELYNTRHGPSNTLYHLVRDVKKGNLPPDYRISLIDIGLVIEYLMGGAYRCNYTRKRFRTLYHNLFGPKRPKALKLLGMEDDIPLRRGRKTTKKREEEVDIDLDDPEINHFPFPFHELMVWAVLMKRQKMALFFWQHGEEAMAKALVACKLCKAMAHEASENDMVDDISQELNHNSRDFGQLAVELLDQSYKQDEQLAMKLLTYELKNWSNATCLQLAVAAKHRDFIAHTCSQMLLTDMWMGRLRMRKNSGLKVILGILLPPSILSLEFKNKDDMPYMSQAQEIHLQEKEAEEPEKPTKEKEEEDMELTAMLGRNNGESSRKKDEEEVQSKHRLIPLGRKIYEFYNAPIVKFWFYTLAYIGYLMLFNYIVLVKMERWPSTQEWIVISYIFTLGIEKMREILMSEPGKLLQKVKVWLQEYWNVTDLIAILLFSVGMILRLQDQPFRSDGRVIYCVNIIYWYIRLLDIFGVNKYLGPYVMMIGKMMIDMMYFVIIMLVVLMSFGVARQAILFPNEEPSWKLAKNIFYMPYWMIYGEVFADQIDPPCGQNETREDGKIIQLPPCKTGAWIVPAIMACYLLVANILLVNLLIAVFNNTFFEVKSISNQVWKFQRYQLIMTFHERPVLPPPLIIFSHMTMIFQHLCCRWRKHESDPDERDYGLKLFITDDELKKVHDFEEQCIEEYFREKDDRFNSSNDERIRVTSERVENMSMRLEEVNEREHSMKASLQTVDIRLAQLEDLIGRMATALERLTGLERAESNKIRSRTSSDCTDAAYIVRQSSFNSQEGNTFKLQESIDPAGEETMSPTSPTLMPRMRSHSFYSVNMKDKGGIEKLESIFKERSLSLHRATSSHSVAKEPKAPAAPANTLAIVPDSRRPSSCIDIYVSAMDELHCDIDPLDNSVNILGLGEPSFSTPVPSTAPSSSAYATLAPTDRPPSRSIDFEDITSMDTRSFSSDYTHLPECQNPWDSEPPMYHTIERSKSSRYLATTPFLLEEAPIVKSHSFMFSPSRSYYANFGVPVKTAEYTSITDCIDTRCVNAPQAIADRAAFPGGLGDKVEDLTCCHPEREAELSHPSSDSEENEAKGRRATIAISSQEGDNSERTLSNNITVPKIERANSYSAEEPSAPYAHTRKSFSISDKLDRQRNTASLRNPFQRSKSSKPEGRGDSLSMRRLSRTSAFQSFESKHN

CS(=O)(=O)c1ccc(C(=O)Nc2ccc(N3CCCC3)cc2)c(Cl)c1 [2-CMNPBC, 2-chloro-4-(methylsulphonyl)-N-[4-(1 pyrrolidinyl)phenyl]benzenecarboxamide]
Ca2+ measurement; 10 μM inhibits PregS-evoked but not nifedipine-evoked TRPM3 ac [1]: (2-CMNPBC, Fig. 9a), which also inhibited pregnenolone sulphate-evoked TRPM3 activity

CC(C)CCC[C@@H](C)[C@H]1CC[C@H]2[C@@H]3CC=C4C[C@@H](O)CC[C@]4(C)[C@H]3CC[C@]12C [cholesterol]
Overlay binding assay with lysate of HEK 293 cells expressing TRPM3-YFP [2]: TRPM3 bound to pregnenolone sulphate, progesterone, nifedipine, dihydrotestosterone and cholesterol

CC(=O)[C@H]1CC[C@H]2[C@@H]3CCC4=CC(=O)CC[C@]4(C)[C@H]3CC[C@]12C [prog, progesterone]
Ca2+ measurement and whole-cell patch-clamp inhibition; steroid overlay binding [3]: TRPM3 bound to pregnenolone sulphate, progesterone, nifedipine, dihydrotestosterone and cholesterol
